Experimental data as given in PubChem BioAssay AID1963434 (Molecular Pharmacology Branch, DTP, NCI, 2024).
pIC50: −log10 of the molar value.

Test system: 755483-174-R-J1-PDC complex spheroid growth, percent test/control
Experiment: Anticancer human tumor 755483-174-R-J1-PDC patient-derived rhabdomyosarcoma cell line growth inhibition [Asc]
Details: for pIC50: curve of first compound; for viability, T/C: stronger effect = lower value; active means viability on the fitted dose curve at most 10% of control; inactive means the rest
Procedure, shortened: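 Spheroid model: tumor line + HUVEC + hMSC. Single agents and combinations; top conc. at/near clinical Cmax (10 microM if undetermined), half-log dilutions. DMSO stocks at 800-fold test concentration.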

[1] = second compound 0.01 µM, first compound 0.0316 µM
[2] = second compound 0.01 µM, first compound 0.1 µM
[3] = second compound 0.0316 µM, first compound 0.0316 µM
[4] = second compound 0.0316 µM, first compound 0.1 µM
[5] = second compound 0.1 µM, first compound 0.0316 µM
[6] = second compound 0.1 µM, first compound 0.1 µM
[7] = second compound 0.316 µM, first compound 0.0316 µM
[8] = second compound 0.316 µM, first compound 0.1 µM
[9] = second compound 1 µM, first compound 0.0316 µM
[10] = second compound 1 µM, first compound 0.1 µM
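Further: spheroids exposed to compounds for seven days before readout.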

Cc1nc(N2CCC3(CC2)COC(C)C3N)c(CO)nc1Sc1ccnc(N)c1Cl (stereo not given) + CCN1C(C(=O)NC23CCC(C(=O)O)(CC2)CC3)C(c2cccc(Cl)c2F)C2(C(=O)Nc3cc(Cl)ccc32)C12CCCCC2
inactive: viability, T/C (second compound 0.03 µM, first compound 0.00949 µM) 111% | viability, T/C (second compound 0.03 µM, first compound 0.03 µM) 93.4% | viability, T/C (second compound 0.03 µM, first compound 0.0949 µM) 80.7% | viability, T/C (second compound 0.03 µM, first compound 0.3 µM) 58.6% | viability, T/C (second compound 0.03 µM, first compound 0.949 µM) 33.4% | viability, T/C (second compound 0.03 µM, first compound 3 µM) 19.6% | viability, T/C (second compound 0.0949 µM, first compound 0.00949 µM) 113% | viability, T/C (second compound 0.0949 µM, first compound 0.03 µM) 106% | viability, T/C (second compound 0.0949 µM, first compound 0.0949 µM) 106% | viability, T/C (second compound 0.0949 µM, first compound 0.3 µM) 52.9% | viability, T/C (second compound 0.0949 µM, first compound 0.949 µM) 39.2% | viability, T/C (second compound 0.0949 µM, first compound 3 µM) 21.1% | viability, T/C (second compound 0.3 µM, first compound 0.00949 µM) 89.5% | viability, T/C (second compound 0.3 µM, first compound 0.03 µM) 87.6% | viability, T/C (second compound 0.3 µM, first compound 0.0949 µM) 62.1% | viability, T/C (second compound 0.3 µM, first compound 0.3 µM) 51.6% | viability, T/C (second compound 0.3 µM, first compound 0.949 µM) 42.5% | viability, T/C (second compound 0.3 µM, first compound 3 µM) 18.5% | viability, T/C (second compound 0.949 µM, first compound 0.00949 µM) 105% | viability, T/C (second compound 0.949 µM, first compound 0.03 µM) 82.9% | viability, T/C (second compound 0.949 µM, first compound 0.0949 µM) 84.1% | viability, T/C (second compound 0.949 µM, first compound 0.3 µM) 40.1% | viability, T/C (second compound 0.949 µM, first compound 0.949 µM) 24.9% | viability, T/C (second compound 0.949 µM, first compound 3 µM) 27.1% | viability, T/C (second compound 3 µM, first compound 0.00949 µM) 111% | viability, T/C (second compound 3 µM, first compound 0.03 µM) 82.9% | viability, T/C (second compound 3 µM, first compound 0.0949 µM) 71.9% | viability, T/C (second compound 3 µM, first compound 0.3 µM) 50.1% | viability, T/C (second compound 3 µM, first compound 0.949 µM) 34.3% | viability, T/C (second compound 3 µM, first compound 3 µM) 21.1%
6.41: pIC50 (second compound 0.3 µM)
6.50: pIC50 (second compound 3 µM)
6.43: pIC50 (second compound 0.0949 µM)
6.63: pIC50 (second compound 0.949 µM)
6.35: pIC50 (second compound 0.03 µM)

Cn1ncnc1[C@H]1c2n[nH]c(=O)c3cc(F)cc(c23)N[C@@H]1c1ccc(F)cc1 + CNC(C)C(=O)NC1CN(S(=O)(=O)c2cccc(S(=O)(=O)N3CCC4CCC(C(=O)NC(c5ccccc5)c5ccccc5)N4C(=O)C(NC(=O)C(C)NC)C3)c2)CCC2CCC(C(=O)NC(c3ccccc3)c3ccccc3)N2C1=O
active: viability, T/C [6] 9.96% | viability, T/C [7] 6.84% | viability, T/C [8] 9.04% | viability, T/C [9] 9.01% | viability, T/C [10] 7.46%
> 9.50: pIC50 (second compound 0.01 µM) | pIC50 (second compound 0.0316 µM) | pIC50 (second compound 0.1 µM) | pIC50 (second compound 0.316 µM) | pIC50 (second compound 1 µM)
inactive: viability, T/C (second compound 0.01 µM, first compound 0.000316 µM) 39.3% | viability, T/C (second compound 0.01 µM, first compound 0.001 µM) 45.2% | viability, T/C (second compound 0.01 µM, first compound 0.00316 µM) 45.5% | viability, T/C (second compound 0.01 µM, first compound 0.01 µM) 30.9% | viability, T/C [1] 26.4% | viability, T/C [2] 18.1% | viability, T/C (second compound 0.0316 µM, first compound 0.000316 µM) 36.2% | viability, T/C (second compound 0.0316 µM, first compound 0.001 µM) 42.9% | viability, T/C (second compound 0.0316 µM, first compound 0.00316 µM) 33.4% | viability, T/C (second compound 0.0316 µM, first compound 0.01 µM) 16.2% | viability, T/C [3] 18.1% | viability, T/C [4] 12.7% | viability, T/C (second compound 0.1 µM, first compound 0.000316 µM) 26.2% | viability, T/C (second compound 0.1 µM, first compound 0.001 µM) 33.2% | viability, T/C (second compound 0.1 µM, first compound 0.00316 µM) 25.4% | viability, T/C (second compound 0.1 µM, first compound 0.01 µM) 14.4% | viability, T/C [5] 13.7% | viability, T/C (second compound 0.316 µM, first compound 0.000316 µM) 31.5% | viability, T/C (second compound 0.316 µM, first compound 0.001 µM) 23.6% | viability, T/C (second compound 0.316 µM, first compound 0.00316 µM) 17.2% | viability, T/C (second compound 0.316 µM, first compound 0.01 µM) 14.7% | viability, T/C (second compound 1 µM, first compound 0.000316 µM) 13.7% | viability, T/C (second compound 1 µM, first compound 0.001 µM) 19.7% | viability, T/C (second compound 1 µM, first compound 0.00316 µM) 9.69% | viability, T/C (second compound 1 µM, first compound 0.01 µM) 9.82%

O=C(c1cc(Cc2n[nH]c(=O)c3ccccc23)ccc1F)N1CCN(C(=O)C2CC2)CC1 + CNC(C)C(=O)NC1CN(S(=O)(=O)c2cccc(S(=O)(=O)N3CCC4CCC(C(=O)NC(c5ccccc5)c5ccccc5)N4C(=O)C(NC(=O)C(C)NC)C3)c2)CCC2CCC(C(=O)NC(c3ccccc3)c3ccccc3)N2C1=O
> 7.50: pIC50 (second compound 0.01 µM) | pIC50 (second compound 0.0316 µM) | pIC50 (second compound 0.1 µM) | pIC50 (second compound 0.316 µM) | pIC50 (second compound 1 µM)
inactive: viability, T/C [1] 41.7% | viability, T/C [2] 41.1% | viability, T/C (second compound 0.01 µM, first compound 0.316 µM) 34.5% | viability, T/C (second compound 0.01 µM, first compound 1 µM) 27.5% | viability, T/C (second compound 0.01 µM, first compound 3.16 µM) 24.1% | viability, T/C (second compound 0.01 µM, first compound 10 µM) 12% | viability, T/C [3] 35.3% | viability, T/C [4] 34.3% | viability, T/C (second compound 0.0316 µM, first compound 0.316 µM) 24.3% | viability, T/C (second compound 0.0316 µM, first compound 1 µM) 21.3% | viability, T/C (second compound 0.0316 µM, first compound 3.16 µM) 17.9% | viability, T/C (second compound 0.0316 µM, first compound 10 µM) 9.95% | viability, T/C [5] 27.2% | viability, T/C [6] 40.2% | viability, T/C (second compound 0.1 µM, first compound 0.316 µM) 28.5% | viability, T/C (second compound 0.1 µM, first compound 1 µM) 23.6% | viability, T/C (second compound 0.1 µM, first compound 3.16 µM) 15.5% | viability, T/C [7] 29.5% | viability, T/C [8] 40.1% | viability, T/C (second compound 0.316 µM, first compound 0.316 µM) 23.3% | viability, T/C (second compound 0.316 µM, first compound 1 µM) 15.7% | viability, T/C (second compound 0.316 µM, first compound 3.16 µM) 8.99% | viability, T/C [9] 16.7% | viability, T/C [10] 17.2% | viability, T/C (second compound 1 µM, first compound 0.316 µM) 6.88%
active: viability, T/C (second compound 0.1 µM, first compound 10 µM) 7.57% | viability, T/C (second compound 0.316 µM, first compound 10 µM) 3.81% | viability, T/C (second compound 1 µM, first compound 1 µM) 6.73% | viability, T/C (second compound 1 µM, first compound 3.16 µM) 8.78% | viability, T/C (second compound 1 µM, first compound 10 µM) 3.7%
